{"source": "ChEMBL document CHEMBL1158397", "about": "“Polycyclic cage structures as carrier molecules for neuroprotective non-steroidal anti-inflammatory drugs” (Eur J Med Chem, 2009)", "key": {"Brain [1]": {"test_system": "Brain", "assay": "Antioxidant activity in Sprague-Dawley rat brain homogenate assessed as attenuation of toxin-induced lipid peroxidation at 1 mM by modified TBA assay", "type": "functional, tissue-based"}, "Brain [2]": {"test_system": "Brain", "assay": "Drug level in C57BL/6 mouse brain assessed as ibuprofen at 246.883 mg/kg, ip measured after 1 hr by LC-MS/MS analysis", "type": "ADME, organism-based", "parameters": "dose 246.883 mg/kg, route intraperitoneal", "conditions": "in vivo, 246.88 mg/kg"}, "[3]": {"assay": "Ratio of drug level in brain to blood assessed as ibuprofen in C57BL/6 mouse at 246.883 mg/kg, ip measured after 1 hr by LC-MS/MS analysis", "type": "ADME, organism-based", "parameters": "dose 246.883 mg/kg, route intraperitoneal", "conditions": "246.88 mg/kg"}, "Blood [4]": {"test_system": "Blood", "assay": "Drug level in C57BL/6 mouse blood assessed as ibuprofen at 246.883 mg/kg, ip measured after 1 hr by LC-MS/MS analysis", "type": "ADME, organism-based", "parameters": "dose 246.883 mg/kg, route intraperitoneal", "conditions": "in vivo, 246.88 mg/kg"}, "[5]": {"assay": "Drug level in C57BL/6 mouse brain at 150 mg/kg, ip measured after 1 hr by LC-MS/MS analysis", "type": "ADME, organism-based", "parameters": "dose 150 mg/kg, route intraperitoneal", "conditions": "read-out: Drug uptake"}, "Brain [6]": {"test_system": "Brain", "assay": "Drug level in C57BL/6 mouse brain assessed as salicylic acid at 150 mg/kg, ip measured after 1 hr by LC-MS/MS analysis", "type": "ADME, organism-based", "parameters": "dose 150 mg/kg, route intraperitoneal", "conditions": "in vivo"}, "Brain [7]": {"test_system": "Brain", "assay": "Drug level in C57BL/6 mouse brain assessed as total salicylate at 150 mg/kg, ip measured after 1 hr by LC-MS/MS analysis", "type": "ADME, organism-based", "parameters": "dose 150 mg/kg, route intraperitoneal", "conditions": "in vivo"}, "[8]": {"assay": "Ratio of drug level in brain to blood assessed as total salicylate in C57BL/6 mouse at 150 mg/kg, ip measured after 1 hr by LC-MS/MS analysis", "type": "ADME, organism-based", "parameters": "dose 150 mg/kg, route intraperitoneal"}, "[9]": {"assay": "Ratio of drug level in brain to blood in C57BL/6 mouse at 150 mg/kg, ip measured after 1 hr by LC-MS/MS analysis", "type": "ADME, organism-based", "parameters": "dose 150 mg/kg, route intraperitoneal"}, "Blood [10]": {"test_system": "Blood", "assay": "Drug level in C57BL/6 mouse blood assessed as salicylic acid at 150 mg/kg, ip measured after 1 hr by LC-MS/MS analysis", "type": "ADME, organism-based", "parameters": "dose 150 mg/kg, route intraperitoneal", "conditions": "in vivo"}, "[11]": {"assay": "Ratio of drug level in brain to blood assessed as salicylic acid in C57BL/6 mouse at 150 mg/kg, ip measured after 1 hr by LC-MS/MS analysis", "type": "ADME, organism-based", "parameters": "dose 150 mg/kg, route intraperitoneal"}, "[12]": {"assay": "Drug level in C57BL/6 mouse blood at 150 mg/kg, ip measured after 1 hr by LC-MS/MS analysis", "type": "ADME, organism-based", "parameters": "dose 150 mg/kg, route intraperitoneal", "conditions": "read-out: Drug uptake"}, "Blood [13]": {"test_system": "Blood", "assay": "Drug level in C57BL/6 mouse blood assessed as total salicylate at 150 mg/kg, ip measured after 1 hr by LC-MS/MS analysis", "type": "ADME, organism-based", "parameters": "dose 150 mg/kg, route intraperitoneal", "conditions": "in vivo"}, "Brain [14]": {"test_system": "Brain", "assay": "Drug level in C57BL/6 mouse brain assessed as acetylsalicylic acid at 327.58 mg/kg, ip measured after 1 hr by LC-MS/MS analysis", "type": "ADME, organism-based", "parameters": "dose 327.58 mg/kg, route intraperitoneal", "conditions": "in vivo"}, "[15]": {"assay": "Ratio of drug level in brain to blood assessed as acetylsalicylic acid in C57BL/6 mouse at 327.58 mg/kg, ip measured after 1 hr by LC-MS/MS analysis", "type": "ADME, organism-based", "parameters": "dose 327.58 mg/kg, route intraperitoneal"}, "Blood [16]": {"test_system": "Blood", "assay": "Drug level in C57BL/6 mouse blood assessed as acetylsalicylic acid at 327.58 mg/kg, ip measured after 1 hr by LC-MS/MS analysis", "type": "ADME, organism-based", "parameters": "dose 327.58 mg/kg, route intraperitoneal", "conditions": "in vivo"}, "[17]": {"assay": "Ratio of drug level in brain to blood in C57BL/6 mouse at 260.935 mg/kg, ip measured after 1 hr by LC-MS/MS analysis", "type": "ADME, organism-based", "parameters": "dose 260.935 mg/kg, route intraperitoneal", "conditions": "260.94 mg/kg"}, "[18]": {"assay": "Drug level in C57BL/6 mouse brain at 260.935 mg/kg, ip measured after 1 hr by LC-MS/MS analysis", "type": "ADME, organism-based", "parameters": "dose 260.935 mg/kg, route intraperitoneal", "conditions": "260.94 mg/kg, read-out: Drug uptake"}, "[19]": {"assay": "Drug level in C57BL/6 mouse blood at 260.935 mg/kg, ip measured after 1 hr by LC-MS/MS analysis", "type": "ADME, organism-based", "parameters": "dose 260.935 mg/kg, route intraperitoneal", "conditions": "260.94 mg/kg, read-out: Drug uptake"}, "Brain [20]": {"test_system": "Brain", "assay": "Drug level in C57BL/6 mouse brain assessed as ibuprofen at 305.08 mg/kg, ip measured after 1 hr by LC-MS/MS analysis", "type": "ADME, organism-based", "parameters": "dose 305.08 mg/kg, route intraperitoneal", "conditions": "in vivo"}, "Blood [21]": {"test_system": "Blood", "assay": "Drug level in C57BL/6 mouse blood assessed as ibuprofen at 305.08 mg/kg, ip measured after 1 hr by LC-MS/MS analysis", "type": "ADME, organism-based", "parameters": "dose 305.08 mg/kg, route intraperitoneal", "conditions": "in vivo"}, "[22]": {"assay": "Ratio of drug level in brain to blood assessed as ibuprofen in C57BL/6 mouse at 305.08 mg/kg, ip measured after 1 hr by LC-MS/MS analysis", "type": "ADME, organism-based", "parameters": "dose 305.08 mg/kg, route intraperitoneal"}, "Brain [23]": {"test_system": "Brain", "assay": "Drug level in C57BL/6 mouse brain assessed as acetylsalicylic acid at 260.935 mg/kg, ip measured after 1 hr by LC-MS/MS analysis", "type": "ADME, organism-based", "parameters": "dose 260.935 mg/kg, route intraperitoneal", "conditions": "in vivo, 260.94 mg/kg"}, "Blood [24]": {"test_system": "Blood", "assay": "Drug level in C57BL/6 mouse blood assessed as acetylsalicylic acid at 260.935 mg/kg, ip measured after 1 hr by LC-MS/MS analysis", "type": "ADME, organism-based", "parameters": "dose 260.935 mg/kg, route intraperitoneal", "conditions": "in vivo, 260.94 mg/kg"}, "[25]": {"assay": "Ratio of drug level in brain to blood assessed as acetylsalicylic acid in C57BL/6 mouse at 260.935 mg/kg, ip measured after 1 hr by LC-MS/MS analysis", "type": "ADME, organism-based", "parameters": "dose 260.935 mg/kg, route intraperitoneal", "conditions": "260.94 mg/kg"}}, "note": "Activity calls are given as the source filed them. No cut-off for these calls is given here."}
{"smiles": "CC(C)Cc1ccc(C(C)C(=O)NC23CC4CC(CC(C4)C2)C3)cc1", "note": "(stereo not drawn)", "values": [{"measurement": "Activity", "setting": "Brain [1]", "result": "Active"}, {"measurement": "Drug uptake", "setting": "Brain [2]", "result": 11.83, "unit": "ng/mL"}, {"measurement": "Ratio", "setting": "[3]", "result": 0.39}, {"measurement": "Drug uptake", "setting": "Blood [4]", "result": 30.45, "unit": "ng/mL"}]}
{"smiles": "CC(=O)Oc1ccccc1C(=O)O", "note": "[ASPIRIN]", "values": [{"measurement": "concentration at 1 h", "setting": "[5]", "result": 22.5, "unit": "ng/mL"}, {"measurement": "Drug uptake", "setting": "Brain [6]", "result": 7.37, "unit": "ng/mL"}, {"measurement": "Activity", "setting": "Brain [1]", "result": "Active"}, {"measurement": "Drug uptake", "setting": "Brain [7]", "result": 24.6, "unit": "ng/mL"}, {"measurement": "Ratio", "setting": "[8]", "result": 0.59}, {"measurement": "Kp at 1 h", "setting": "[9]", "result": 0.49}, {"measurement": "Drug uptake", "setting": "Blood [10]", "result": 6.95, "unit": "ng/mL"}, {"measurement": "Ratio", "setting": "[11]", "result": 1.06}, {"measurement": "concentration at 1 h", "setting": "[12]", "result": 45.5, "unit": "ng/mL"}, {"measurement": "Drug uptake", "setting": "Blood [13]", "result": 41.45, "unit": "ng/mL"}]}
{"smiles": "CC(=O)Oc1ccccc1C(=O)OC12C3C4CC5C6C4C1C6C1(OCCCN12)C53", "note": "(stereo not drawn)", "values": [{"measurement": "Activity", "setting": "Brain [1]", "result": "Active"}, {"measurement": "Drug uptake", "setting": "Brain [14]", "result": 59.03, "unit": "ng/mL"}, {"measurement": "Ratio", "setting": "[15]", "result": 1.34}, {"measurement": "Drug uptake", "setting": "Blood [16]", "result": 44.11, "unit": "ng/mL"}]}
{"smiles": "CC(C)Cc1ccc(C(C)C(=O)O)cc1", "note": "(stereo not drawn) [IBUPROFEN]", "values": [{"measurement": "Activity", "setting": "Brain [1]", "result": "Active"}, {"measurement": "Kp at 1 h", "setting": "[17]", "result": 0.9}, {"measurement": "concentration at 1 h", "setting": "[18]", "result": 52.5, "unit": "ng/mL"}, {"measurement": "concentration at 1 h", "setting": "[19]", "result": 61.4, "unit": "ng/mL"}]}
{"smiles": "CC(C)Cc1ccc(C(C)C(=O)OC23C4C5CC6C7C5C2C7C2(OCCCN23)C64)cc1", "note": "(stereo not drawn)", "values": [{"measurement": "Activity", "setting": "Brain [1]", "result": "Active"}, {"measurement": "Drug uptake", "setting": "Brain [20]", "result": 55.8, "unit": "ng/mL"}, {"measurement": "Drug uptake", "setting": "Blood [21]", "result": 40.28, "unit": "ng/mL"}, {"measurement": "Ratio", "setting": "[22]", "result": 1.39}]}
{"smiles": "CC(=O)Oc1ccccc1C(=O)NC12CC3CC(CC(C3)C1)C2", "values": [{"measurement": "Drug uptake", "setting": "Brain [23]", "result": 6.81, "unit": "ng/mL"}, {"measurement": "Activity", "setting": "Brain [1]", "result": "Active"}, {"measurement": "Drug uptake", "setting": "Blood [24]", "result": 13.84, "unit": "ng/mL"}, {"measurement": "Ratio", "setting": "[25]", "result": 0.49}, {"measurement": "Kp at 1 h", "setting": "[17]", "result": 0.49}, {"measurement": "concentration at 1 h", "setting": "[18]", "result": 8.58, "unit": "ng/mL"}, {"measurement": "concentration at 1 h", "setting": "[19]", "result": 17.4, "unit": "ng/mL"}]}
